Structures are written as SMILES.

Data set [1] relates to LPB (murine sarcoma) tumors. Briefly: Fraction of necrosis after calcium electroporation, LPB tumors. Format: in vivo, NMRI-Foxn1^nu mice. Here is the method: LPB, a murine sarcoma cell line, B16, a murine malignant melanoma cell line, MDA-MB231, human a breast cancer cell line, HT29, a human colon cancer cell line, and SW780, a human bladder cancer cell line were used for the in vivo experiment. The cells were tested by rapid MAP27 panel (Taconic, Hudson N.Y.) before use without signs of infection. 2×10^5 cells (B16), 8×10^5 cells (LPB), 2.5×10^6 cells (MDA-MB231), and 5×10^6 cells (HT29 and SW780) in 100 μl PBS were injected subcutaneously in the flank of NMRI-Foxn1^nu mice (Harlan, Indianapolis, Ind.) that were 9-11 weeks old. Mice were randomised at a tumor volume above 85 mm^3 and tumors were treated with injection of isotonic calcium-chloride solution (168 mM CaCI2) and electroporation (8 pulses of 1.0 kv/cm for 100 μs and a frequency of 1 Hz) using a 6 mm plate electrode and a square wave electroporator (CLINIPORATOR®, IGEA, Modena, Italy). Tumor volume was calculated as ab^2n/6, where a is the largest diameter and b is the largest diameter perpendicular to a. The injected volume was half of the tumor volume. […] The fraction of necrosis within the tumor was estimated from HE-sections by stereological point counting using a light microscope, evaluated by a pathologist, blinded with respect to treatment status.
The difference in fraction of necrosis at different time after treatment was assessed using student's t-test.

Data set [2] has as its system muscle below MDA-MB231 tumor. Description: Normal tissue reaction, muscle below the tumor. As to conditions: for fraction of necrosis in muscle tissue: with electroporation, 7 days. The class given is in vivo, NMRI-Foxn1nu mice. The protocol: MDA-MB231, a human breast cancer cell line was used for the in vivo experiments. The cells were tested by rapid MAP27 panel (Taconic, Hudson N.Y.) before use without signs of infection. Cells were maintained in vitro as described in Example 1. 2.5×10^6 cells/100 μl PBS were injected subcutaneously in the flank of NMRI-Foxn1nu mice (Harlan, Indianapolis, Ind.). Tumor pieces were transplanted twice from donor mice to the flank of nude mice that were 13-19 weeks old. HYPNORM™-DORMICUM™ (fentanyl/fluanisone/midazolam; VetaPharma, Leeds, U K and Roche, Basel, Switzerland) was used for anesthesia complemented with RIMADYL® (Carprofen) (Pfizer ApS, Ballerup, Denmark) as well as lidocaine (Region Hovedstadens Apotek, Herlev, Denmark) in the incision. Mice were randomised at a tumor volume above 85 mm^3 and tumors were treated with 1) injection of calcium-chloride solution and electroporation (8 pulses of 1.0 kV/cm for 100 μs and a frequency of 1 Hz) using a 6 mm plate electrode and a square wave electroporator (CLINIPORATOR®, IGEA, Modena, Italy), 2) calcium-free physiological saline injection and electroporation (same parameters as above), 3) injection of calcium-chloride, 4) calcium-free physiological saline injection, or 5) untreated but with needle inserted in the tumor without injection and with electrodes put on the tumor without pulses applied. […] Tumor volume was calculated as ab2n/6, where “a” is the largest diameter and “b” is the largest diameter perpendicular to “a”. […] Estimation of normal tissue damages was evaluated semiquantitatively on HE-sections by light[ ]microscopy (LEICA® DM 2000 light microscope, Leica Microsystems, Wetzlar, Germany).
The presence of necrosis in the muscle samples were scored by counting numbers of necrotic myocytes per 10 HPF (400× magnification). Necrosis was only recorded if the myocytes had lost the nucleus. Increased eosinofilic intensity in the myocyte cytoplasm with a retained nucleus was not recorded as a necrotic fiber. […]

Data set [3] concerns MDA-MB231 (human breast cancer) tumors. Description: Fraction of tumor necrosis at different calcium concentrations and injection volumes. Format: in vivo, NMRI-Foxn1nu mice. As to conditions: electroporation, 7 days. The protocol:
MDA-MB231, a human breast cancer cell line was used for the in vivo experiments. The cells were tested by rapid MAP27 panel (Taconic, Hudson N.Y.) before use without signs of infection. Cells were maintained in vitro as described in Example 1. 2.5×10^6 cells/100 μl PBS were injected subcutaneously in the flank of NMRI-Foxn1nu mice (Harlan, Indianapolis, Ind.). Tumor pieces are transplanted twice from donor mice to the flank of nude mice that were 13-19 weeks old. HYPNORM™-DORMICUM™ (fentanyl/fluanisone/midazolam; VetaPharma, Leeds, U K and Roche, Basel, Switzerland) was used for anesthesia complemented with RIMADYL® (Carprofen) (Pfizer ApS, Ballerup, Denmark) as well as lidocaine (Region Hovedstadens Apotek, Herlev, Denmark) in the incision. Mice were randomised at a tumor volume above 85 mm3 and tumors were treated with 1) injection of calcium-chloride solution and electroporation (8 pulses of 1.0 kV/cm for 100 μs and a frequency of 1 Hz) using a 6 mm plate electrode and a square wave electroporator (CLINIPORATOR®, IGEA, Modena, Italy), 2) calcium-free physiological saline injection and electroporation (same parameters as above), 3) injection of calcium-chloride, 4) calcium-free physiological saline injection, or 5) untreated but with needle inserted in the tumor without injection and with electrodes put on the tumor without pulses applied. […] Tumor volume was calculated as ab2n/6, where a is the largest diameter and b is the largest diameter perpendicular to a. The solutions were injected through the side of the firm tumor and the needle was moved around inside the tumor to secure injection all over the tumor. Tumors were removed 7 days after treatment, fixated in formalin (10% neutrally buffered) and paraffin embedded. Subsequently, tissue sections with a thickness of 3 μm were HE-stained according to the routine procedure of the department. The fraction of necrosis within the tumor was estimated from HE-sections using a light microscope, evaluated by a pathologist, blinded with respect to treatment status.

As to `[Ca+2].[Cl-].[Cl-]` [calcium chloride], in data set [1] (168 mM CaCl2, half tumor volume, electroporation, first days after treatment), the “fraction of necrosis in tumors, course” value is “progressive necrosis”. In addition, the tumor re-growth result in data set [1] (6 days after the treatment) is recorded as “re-growth”. In addition, the “fraction of muscle tissue affected” value in data set [2] (after calcium electroporation of the tumor above the muscle) is reported as “only a minor fraction”. For the same compound, the “fraction of necrosis in muscle tissue” value in data set [2] (at increasing calcium concentrations) is “increase in the fraction of necrosis”; in data set [2] (at increasing injection volumes), “slight increase in the fraction of necrosis”. In addition, the “fraction of necrosis in tumors” value in data set [3] (100 mM to 500 mM calcium, constant injection volume 50% of tumor volume) is given as “higher than the fraction of necrosis in untreated tumors”; in data set [3] (injection volumes 20% to 80% of tumor volume, constant 168 mM calcium) it was “higher than the fraction of necrosis in untreated tumors”. Besides, the “injection volume with highest fraction of necrosis” value in data set [3] (168 mM calcium) is on record as 40 % of the tumor volume.
